Assay results published in patent US7682785B2, “Method for predicting effectiveness of chemotherapy using anticancer agent” (Sysmex Corporation, priority 2005, dated 2010).
Where “and” joins values, the source holds several entries; their conditions need not be identical. Equal entries are not always repeated.

Tests used:
[1] = tested on: CDK1; assay: CDK1 specific activity in tumor tissue lysate of mouse heterograft after paclitaxel administration; type: in vivo, human; conditions: 24 hours after 20 mg/kg single administration, one value per mouse
Protocol: A tissue specimen containing target tumor cells was prepared in a 1.5 ml-Eppendorf tube so that 100 μg lysate in terms of total protein mass was dissolved in a buffer solution of 500 μl. To the buffer solution, added were sepharose beads (Bio-Rad, Calif., U.S.A.) coated with 20 μl of a protein A and 2 μg of antibodies specific to the CDK whose activity was to be measured, i.e. polyclonal anti-CDK1-antibodies or polyclonal anti-CDK2-antibodies (Santa Cruz Biotechnology, Santa Cruz, Calif.). After the addition, the solution was reacted at 4° C. for 1 hour. Thereafter, the beads were washed with a buffer solution (0.1% NP-40 and 50 mM tris-HCl adjusted pH 7.0) three times, followed by re-suspension in a kinase buffer of 15 μl. Thus, a sample containing the beads to which the target CDK binds was yielded.
(§1) In the sample, all the CDK (hereinafter, if distinction is not necessary, simply called as “CDKs”) including CDK itself, activated CDK to which cycline binds, complexes of activated CDK and CDK inhibitor, and complexes of CDK and CDK inhibitor were bound to the antibodies, thereby fixing the CDKs to the beads. The activity of the CDKs in the sample was measured by the following measurement method.
(§2) Prepared was a substrate solution containing 5 mM adenosine 5′-O-([…]) (ATP-γS (Sigma)), a buffer solution (20 mM tris-HCl (pH: 7.4), 0.1% Triton-X-100), and 10 μg histon H1 (Upstate Biotechnology, Lake Placid, N.Y.) as a substrate for CDK1 and CDK2. The substrate solution was added to the aforementioned sample solution containing the CDKs up to the total volume of 50 μl. The resulting sample solution was shaken for 10 minutes at 37° C. for incubation. As shown by the following formula, serine or threonine residue in the substrate was phosphorylated by the activated CDK, and monothiophosphorylated substrate was yielded.
(§3) After the reaction, the sample solution was centrifuged at 20,000 rpm for 20 seconds to precipitate the beads, and 18 μl of a supernatant in which monothiophosphates were dissolved was obtained. To 18 μl of the supernatant, added was 15 μl of a buffer solution (150 mM tris-HCl (pH: 9.2) and 5 mM EDTA). Further, the resultant solution was incubated in 10 mM iodoacetyl biotin solution (100 mM tris-HCl (pH: 7.5) and 1 mM EDTA) in a dark place for 90 minutes at room temperature. Thereby, sulfur ions in the thiophosphates in the monothiophosphorylated substrate were labeled by biotinylation. The reaction of the iodoacetyl biotin with the thiophosphates was stopped by adding […].
0.4 μg of the biotinylated thiophosphorylated substrate was blotted on a PVDF membrane by using a slot blotter for adsorption. The blotted membrane was blocked with 1% of bovine serum albumin (BSA) for 30 minutes, followed by reaction with avidin-FITC (Vector, Burlingame, Calif.) at 37° C. for 1 hour. […] After the washing, the image on the membrane was analyzed by a fluorescent image analyzer (Bio-Rad, Calif. U.S.A.). The activity of the CDKs was calculated based on a standard curve.
The standard curve was created by adsorbing a protein (biotinylated immunoglobulin) of a known amount to a PVDF membrane, labeling the protein with FITC in the same manner as mentioned above, and measuring the fluorescent intensity of the protein by the fluorescent image analyzer (Bio-Rad). 1 U of the CDK activity to be measured is a value representing the fluorescent intensity substantially equivalent to the fluorescent amount of the target protein of 1 ng. […]

[2] = tested on: human-derived breast cancer cultured cells (cell A); assay: Effect of anticancer agent therapy for cancerous mice (change in tumor size), cell A heterograft; type: in vivo; conditions: cell A implanted subcutaneously in mice; 20 mg/kg once a day for 5 days; tumor size to the 11th day
Protocol: (§4) 5 kinds of human-derived breast cancer cultured cells (cells A to E) were subcutaneously implanted on the backs of forty-six mice (No. 1 to 46). The mice were raised for 21 to 28 days to engraft the breast cancer cells. […] Upon lapse of 24 hours after the administration, tissues (about 50 mg) in the size of 2.5 mm×2.5 mm was cut from the back of each mouse. Each of the tissues were homogenized using an electric homogenizer to dissolve dissolvable components in a buffer solution containing 0.1 w/v % nonidet P-40 (NP-40) (Calbiochem), 50 mM tris-HCl (pH: 7.4), 5 mM EDTA, 50 mM sodium fluoride, 1 mM sodium orothovanadate, and 100 μl/ml of protease inhibitor cocktail (Sigma, St. Louis, Mo.).
(§5) The tumor size was measured from the start of the administration to the 11th day after the start of the administration. The chemotherapeutic effectiveness was classified, according to the change in tumor size, into Type I (high chemosensitivity), Type II (medium chemosensitivity), Type III (slightly low chemosensitivity), and Type IV (low chemosensitivity). […] The classification results are shown in the column of “Effect of therapy” in Table 1.

[3] = tested on: CDK2; assay: CDK2 specific activity in tumor tissue lysate of mouse heterograft after paclitaxel administration; type: in vivo, human; conditions: 24 hours after 20 mg/kg single administration, one value per mouse
Protocol: A tissue specimen containing target tumor cells was prepared in a 1.5 ml-Eppendorf tube so that 100 μg lysate in terms of total protein mass was dissolved in a buffer solution of 500 μl. […] After the addition, the solution was reacted at 4° C. for 1 hour. Thereafter, the beads were washed with a buffer solution (0.1% NP-40 and 50 mM tris-HCl adjusted pH 7.0) three times, followed by re-suspension in a kinase buffer of 15 μl. Thus, a sample containing the beads to which the target CDK binds was yielded.
as §1, §2, §3
0.4 μg of the biotinylated thiophosphorylated substrate was blotted on a PVDF membrane by using a slot blotter for adsorption. The blotted membrane was blocked with 1% of bovine serum albumin (BSA) for 30 minutes, followed by reaction with avidin-FITC (Vector, Burlingame, Calif.) at 37° C. for 1 hour. Thereafter, the membrane was washed with 50 mM TBS (25 mM tris-HCl (pH: 7.4) and 150 mM NaCl) for 10 minutes three times. After the washing, the image on the membrane was analyzed by a fluorescent image analyzer (Bio-Rad, Calif. U.S.A.). The activity of the CDKs was calculated based on a standard curve.
The standard curve was created by adsorbing a protein (biotinylated immunoglobulin) of a known amount to a PVDF membrane, labeling the protein with FITC in the same manner as mentioned above, and measuring the fluorescent intensity of the protein by the fluorescent image analyzer (Bio-Rad). 1 U of the CDK activity to be measured is a value representing the fluorescent intensity substantially equivalent to the fluorescent amount of the target protein of 1 ng.
An initialized PVDF membrane (Millipore, Billerica, Mass.) obtained by immersing the membrane in TBS (25 mM tris-HCl (pH: 7.4) and 150 mM NaCl) was set to a well plate for slot blotter. […]

[4] = tested on: human-derived breast cancer cultured cells (cell C); assay: Effect of anticancer agent therapy for cancerous mice (change in tumor size), cell C heterograft; type: in vivo; conditions: cell C implanted subcutaneously in mice; 20 mg/kg once a day for 5 days; tumor size to the 11th day
Protocol: as §4, §5

[5] = tested on: p21; assay: Expression level of p21 (WAF1 ELISA) in tumor tissue lysate of mouse heterograft after paclitaxel administration; type: in vivo, human; parameters: unit not given here; conditions: 24 hours after 20 mg/kg single administration, one value per mouse
Protocol: Expression level of p21 is measured using CALIBIOCHEM p21 WAF 1 ELISA kit (EMD Bioscience Inc.).
WAF1 sample solutions (mixture solutions of specimen and WAF1 standard solution containing lyophilized WAF1) were prepared by diluting the WAF1 standard solution (20 unit/ml lyophilized WAF1) stepwise with the cell lysate as the specimen. In each of the sample solutions, the cell lysate was diluted 4-times or more.
Into 96-well plastic plate in which rabbit polyclonal antibodies (primary antibody) specific to WAF1 was coated, 100 μl each of the WAF1 sample solution and the WAF1 standard solution were individually seeded into the wells. The well plate was sealed and incubated at room temperature for 2 hours for reaction with the primary antibody.
After the well plate was washed with a cleaning buffer, which was prepared by adding 25 ml of a 20-times concentrated solution to 475 ml de-ionized water, three times, 100 μl of antibodies (biotinylated anti-WAF1 monoclonal antibodies) for detection of […] were added to each well. Thereafter, the well plate was sealed and allowed to react at room temperature for 1 hour.
After the reaction, the well plate was washed with the cleaning buffer three times, and then, 100 μl of a peroxidase-conjugated streptavidine diluent was added into each well, and the mixture was stirred moderately. Thereafter, the well plate was sealed and allowed to react at room temperature for 30 minutes. After reaction, unbound peroxidase-conjugated streptavidine was removed by washing with the cleaning buffer three times. And then, 100 μl of a substrate solution (pigment source substrate) was added into each well, and the mixture was reacted at room temperature for 30 minutes. Upon lapse of 30 minutes after the addition, 100 μl of a stop solution (2.5 N sulfuric acid) was poured into each well to stop the reaction. Then, absorbance of each well's contents was measured using a plate reader at dual wavelength of 450/540 nm.
The concentration of p21WAF1 in the WAF1 sample solutions was calculated based on a standard curve of the WAF1 standard solution.
as §4
After removing insoluble components by centrifuging at 15,000 rpm for 5 minutes at 4 ° C., the obtained supernatants (cell lysates) were used as specimens.
Activity and expression level of CDK1 and CDK2 respectively were measured with respect to the specimens obtained in the experiment (1) in accordance with the aforementioned measurement method, and the specific activity of CDK1 and the specific activity of CDK2 in the specimens were calcurated. Also, the expression level of p21 in the specimens was measured in accordance with the aforementioned measurement method.

[6] = tested on: human-derived breast cancer cultured cells (cell D); assay: Effect of anticancer agent therapy for cancerous mice (change in tumor size), cell D heterograft; type: in vivo; conditions: cell D implanted subcutaneously in mice; 20 mg/kg once a day for 5 days; tumor size to the 11th day
Protocol: as §4, §5

[7] = tested on: human-derived breast cancer cultured cells (cell B); assay: Effect of anticancer agent therapy for cancerous mice (change in tumor size), cell B heterograft; type: in vivo; conditions: cell B implanted subcutaneously in mice; 20 mg/kg once a day for 5 days; tumor size to the 11th day
Protocol: as §4, §5

[8] = tested on: human-derived breast cancer cultured cells (cell E); assay: Effect of anticancer agent therapy for cancerous mice (change in tumor size), cell E heterograft; type: in vivo; conditions: cell E implanted subcutaneously in mice; 20 mg/kg once a day for 5 days; tumor size to the 11th day
Protocol: as §4, §5

## CC(=O)O[C@H]1C(=O)[C@@]2(C)[C@H]([C@H](OC(=O)c3ccccc3)[C@]3(O)C[C@H](OC(=O)[C@H](O)[C@@H](NC(=O)c4ccccc4)c4ccccc4)C(C)=C1C3(C)C)[C@]1(OC(C)=O)CO[C@@H]1C[C@@H]2O [paclitaxel]
[1]; cell A tumor tissue
  Specifc activity of CDK1: 11.79 mU/ng and 10.83 mU/ng and 17.50 mU/ng and 21.77 mU/ng and 16.12 mU/ng and 16.82 mU/ng and 13.55 mU/ng
[1]; cell B tumor tissue
  Specifc activity of CDK1: 27.00 mU/ng and 31.56 mU/ng and 20.53 mU/ng and 13.39 mU/ng and 33.32 mU/ng and 32.01 mU/ng and 34.33 mU/ng and 34.21 mU/ng and 35.27 mU/ng and 25.40 mU/ng and 13.90 mU/ng
[1]; cell C tumor tissue
  Specifc activity of CDK1: 25.48 mU/ng and 11.25 mU/ng and 22.64 mU/ng and 39.14 mU/ng and 21.35 mU/ng and 11.22 mU/ng and 13.77 mU/ng and 7.06 mU/ng and 16.60 mU/ng and 11.60 mU/ng and 15.29 mU/ng and 12.58 mU/ng and 41.80 mU/ng and 60.36 mU/ng and 36.09 mU/ng and 30.85 mU/ng
[1]; cell D tumor tissue
  Specifc activity of CDK1: 10.75 mU/ng and 0.00 mU/ng and 7.10 mU/ng and 6.48 mU/ng and 22.16 mU/ng and 9.68 mU/ng and 10.04 mU/ng
[1]; cell E tumor tissue
  Specifc activity of CDK1: 9.81 mU/ng and 2.45 mU/ng and 8.76 mU/ng and 7.92 mU/ng and 8.29 mU/ng
[2]
  Therapy using anticancer agent: Effect of therapy: Type I
[3]; cell A tumor tissue
  Specific activity of CDK2: 734.6 mU/ng and 634.1 mU/ng and 1083.2 mU/ng and 766.4 mU/ng and 407.1 mU/ng and 574.5 mU/ng and 545.0 mU/ng
[3]; cell B tumor tissue
  Specific activity of CDK2: 156.2 mU/ng and 192.8 mU/ng and 109.1 mU/ng and 328.6 mU/ng and 64.8 mU/ng and 130.5 mU/ng and 171.6 mU/ng and 140.3 mU/ng and 157.9 mU/ng and 92.1 mU/ng and 41.9 mU/ng
[3]; cell C tumor tissue
  Specific activity of CDK2: 163.6 mU/ng and 213.3 mU/ng and 209.9 mU/ng and 341.2 mU/ng and 106.9 mU/ng and 206.6 mU/ng and 140.6 mU/ng and 98.6 mU/ng and 114.8 mU/ng and 201.8 mU/ng and 129.9 mU/ng and 151.0 mU/ng and 138.8 mU/ng and 187.9 mU/ng and 124.6 mU/ng and 136.6 mU/ng
[3]; cell D tumor tissue
  Specific activity of CDK2: 0.0 mU/ng (4×) and 80.1 mU/ng and 23.6 mU/ng
[3]; cell E tumor tissue
  Specific activity of CDK2: 55.7 mU/ng and 50.2 mU/ng and 59.1 mU/ng and 0.0 mU/ng and 56.4 mU/ng
[4]
  Therapy using anticancer agent: Effect of therapy: Type II
[5]; cell A tumor tissue
  Expression level of p21: 1.43 and 1.34 and 1.93 and 1.28 and 0.00 and 0.86 and 1.26
[5]; cell B tumor tissue
  Expression level of p21: 4.09 and 4.61 and 5.18 and 5.25 and 5.41 and 5.57 and 5.33 and 5.00 and 3.42 and 4.33 and 5.43
[5]; cell C tumor tissue
  Expression level of p21: 1.06 and 1.44 and 0.00 (7×) and 1.31 and 0.85 and 0.77 and 0.64 and 0.57 and 0.53 and 0.29
[5]; cell D tumor tissue
  Expression level of p21: 8.76 and 7.21 and 7.62 and 7.34 and 6.39 and 5.40 and 0.74
[5]; cell E tumor tissue
  Expression level of p21: 34.45 and 10.96 and 15.33 and 17.25 and 15.25
[6]
  Therapy using anticancer agent: Effect of therapy: Type III
[7]
  Therapy using anticancer agent: Effect of therapy: Type II
[8]
  Therapy using anticancer agent: Effect of therapy: Type IV
